Structures can show the parent of a compound that is named as a salt.
Experiments:
[1] = target: T1, BTK (Homo sapiens, UniProt Q06187); assay: BTK degradation in NAMALWA cells, immunoblot; format: cell-based; conditions: NAMALWA cells
T1 construct: host or cells: NAMALWA

[2] = target: T2, HER3 (Homo sapiens, UniProt P21860); assay: HER3 (ERBB3) degradation, immunoblot; format: cell-based; conditions: Table 5
T2 construct: endogenous in cells

[3] = target: C481S BTK (Homo sapiens, UniProt Q06187, C481S); assay: In vitro kinase inhibition, recombinant BTK, 10-point dose response, 10 μM ATP
Sequence of C481S BTK (Q06187 whole entry C481S): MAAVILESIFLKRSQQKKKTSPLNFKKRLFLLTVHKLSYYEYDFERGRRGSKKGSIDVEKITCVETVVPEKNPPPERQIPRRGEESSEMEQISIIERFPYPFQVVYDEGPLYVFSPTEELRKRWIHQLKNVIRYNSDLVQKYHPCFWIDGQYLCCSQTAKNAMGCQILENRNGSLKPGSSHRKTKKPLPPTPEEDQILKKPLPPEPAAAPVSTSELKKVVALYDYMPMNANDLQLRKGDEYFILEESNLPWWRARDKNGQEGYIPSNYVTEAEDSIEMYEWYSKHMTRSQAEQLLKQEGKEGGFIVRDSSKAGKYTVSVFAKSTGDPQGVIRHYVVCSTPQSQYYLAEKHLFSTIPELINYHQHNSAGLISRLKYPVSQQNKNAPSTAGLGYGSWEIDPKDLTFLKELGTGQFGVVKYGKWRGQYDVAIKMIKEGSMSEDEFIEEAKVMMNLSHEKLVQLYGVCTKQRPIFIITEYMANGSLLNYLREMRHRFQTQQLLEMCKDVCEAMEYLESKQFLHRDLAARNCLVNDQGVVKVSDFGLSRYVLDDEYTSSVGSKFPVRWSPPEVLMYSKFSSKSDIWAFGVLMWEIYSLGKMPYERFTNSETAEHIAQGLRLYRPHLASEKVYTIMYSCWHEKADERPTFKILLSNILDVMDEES

T2 sequence (P21860 20-1342): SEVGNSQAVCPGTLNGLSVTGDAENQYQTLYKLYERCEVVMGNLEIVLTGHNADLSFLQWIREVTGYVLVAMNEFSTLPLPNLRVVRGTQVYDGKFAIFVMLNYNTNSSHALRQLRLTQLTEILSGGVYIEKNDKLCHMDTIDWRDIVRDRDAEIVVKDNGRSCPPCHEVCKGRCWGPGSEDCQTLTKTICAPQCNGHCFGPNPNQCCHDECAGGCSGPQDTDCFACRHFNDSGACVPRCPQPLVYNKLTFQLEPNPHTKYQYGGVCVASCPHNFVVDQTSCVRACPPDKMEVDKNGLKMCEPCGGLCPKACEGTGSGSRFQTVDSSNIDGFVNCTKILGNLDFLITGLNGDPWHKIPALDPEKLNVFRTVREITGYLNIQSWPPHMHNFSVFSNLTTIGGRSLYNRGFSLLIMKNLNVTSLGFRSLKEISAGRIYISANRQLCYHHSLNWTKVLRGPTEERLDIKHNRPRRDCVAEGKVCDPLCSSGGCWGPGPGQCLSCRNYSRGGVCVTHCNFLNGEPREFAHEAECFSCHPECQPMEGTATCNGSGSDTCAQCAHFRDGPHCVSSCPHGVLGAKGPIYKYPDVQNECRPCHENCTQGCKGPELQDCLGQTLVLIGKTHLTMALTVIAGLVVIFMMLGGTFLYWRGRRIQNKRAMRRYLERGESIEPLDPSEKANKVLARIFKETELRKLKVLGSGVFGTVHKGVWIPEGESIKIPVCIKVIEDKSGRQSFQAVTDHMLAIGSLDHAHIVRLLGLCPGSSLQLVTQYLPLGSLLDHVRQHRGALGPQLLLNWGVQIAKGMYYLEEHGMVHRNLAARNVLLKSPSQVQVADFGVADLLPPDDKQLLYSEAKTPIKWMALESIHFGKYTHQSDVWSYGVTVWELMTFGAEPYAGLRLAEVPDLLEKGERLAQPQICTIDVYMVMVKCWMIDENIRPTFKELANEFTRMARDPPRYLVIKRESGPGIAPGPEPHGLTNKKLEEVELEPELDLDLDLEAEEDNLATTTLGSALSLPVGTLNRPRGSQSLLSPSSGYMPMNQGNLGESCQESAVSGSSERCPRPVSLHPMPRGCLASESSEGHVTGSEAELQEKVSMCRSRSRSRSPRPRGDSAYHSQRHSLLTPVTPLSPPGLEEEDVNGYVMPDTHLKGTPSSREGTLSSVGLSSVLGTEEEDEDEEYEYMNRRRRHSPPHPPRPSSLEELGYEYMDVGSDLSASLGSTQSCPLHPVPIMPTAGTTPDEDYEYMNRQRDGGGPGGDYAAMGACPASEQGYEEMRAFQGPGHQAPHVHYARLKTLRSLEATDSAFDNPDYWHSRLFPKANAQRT
T1 sequence (Q06187 whole entry): as the sequence (Q06187 whole entry C481S) above, with S481C counted along it

| Compound | DC50 ([1]; Table 5) [nM] | HER3 Degradation [2] | inhibition potency against C481S mutant BTK relative to wild-type [3] | BTK degradation at 1.0 μM [1] |
| --- | --- | --- | --- | --- |
| (2S,4R)-1-((S)-25-(4-(4-amino-3-(4-phenoxyphenyl)-1H-pyrazolo[3,4-d]pyrimidin-1-yl)piperidin-1-yl)-2,2-dimethyl-5-oxo-7,10,13,16,19-pentaoxa-4-azapentacosanecarbonyl)-4-hydroxy-N-(4-(4-methylthiazol-5-yl)benzyl)pyrrolidine-2-carboxamide [Compound 118] | 231 | No | – | – |
| Nc1ncnc2c1c(-c1ccc(Oc3ccccc3)cc1)nn2C1CCNCC1 [compound 1, 3-(4-phenoxyphenyl)-1-(piperidin-4-yl)-1H-pyrazolo[3,4-d]pyrimidin-4-amine hydrochloride, reference compound] | – | – | retained inhibition potency | – |
| Cc1ncsc1-c1ccc(CNC(=O)[C@@H]2C[C@@H](O)CN2C(=O)[C@@H](NC(=O)COCCOCCOCCOCCCCN2CCC(n3nc(-c4ccc(Oc5ccccc5)cc4)c4c(N)ncnc43)CC2)C(C)(C)C)cc1 [Compound 113, (2S,4R)-1-((S)-19-(4-(4-amino-3-(4-phenoxyphenyl)-1H-pyrazolo[3,4-d]pyrimidin-1-yl)piperidin-1-yl)-2-tert-butyl-4-oxo-6,9,12,15-tetraoxa-3-azanonadecane)-4-hydroxy-N-(4-(4-methylthiazol-5-yl)benzyl)pyrrolidine-2-carboxamide] | – | No | – | – |
| Nc1ncnc2c1c(-c1ccc(Oc3ccccc3)cc1)nn2C1CCN(CCCCCCOCCOCC(=O)Nc2cccc3c2C(=O)N(C2CCC(=O)NC2=O)C3=O)CC1 (centres unmarked) [Compound 104, 2-(2-(6-(4-(4-amino-3-(4-phenoxyphenyl)-1H-pyrazolo[3,4-d]pyrimidin-1-yl)piperidin-1-yl)hexyloxy)ethoxy)-N-(2-(2,6-dioxopiperidin-3-yl)-1,3-dioxoisoindolin-4-yl)acetamide] | – | No | – | nearly complete degradation of BTK |
| Nc1ncnc2c1c(-c1ccc(Oc3ccccc3)cc1)nn2C1CCN(CCCCOCCCCOCC(=O)Nc2cccc3c2C(=O)N(C2CCC(=O)NC2=O)C3=O)CC1 (centres unmarked) [Compound 106, 2-[4-[4-[4-[4-amino-3-(4-phenoxyphenyl)pyrazolo[3,4-d]pyrimidin-1-yl]-1-piperidyl]butoxy]butoxy]-N-[2-(2,6-dioxo-3-piperidyl)-1,3-dioxo-isoindolin-4-yl]acetamide] | – | No | – | nearly complete degradation of BTK |

From patent US20200121684A1, “MODULATORS OF BTK PROTEOLYSIS AND METHODS OF USE” (Yale University, priority 2018, published 2020)
